Tests used:
[1] = biological target: IRAK4 (Homo sapiens (Human), UniProt Q9NWZ3); experiment: IRAK4 Inhibition Assay; format: biochemical; conditions: ATP 500 μM; IRAK4 0.6 nM
Outline: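 Enzyme 0.6 nM, ATP 500 μM, FL-peptide 1.5 μM, DMSO 1.6%; HEPES pH 7.2/MgCl2/Brij 35/DTT buffer. RT, 60 min, EDTA stop. Mobility-shift product/substrate ratio; % inhib vs no-enzyme and vehicle controls.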

[2] = tested on: Human whole blood stimulated with a TLR2 agonist (lipoteichoic acid), IL-6 levels; experiment: IRAK4 Whole Blood Assay; format: cell-based; conditions: lipoteichoic acid 10 μg/mL
Description: Human whole blood containing the anti-coagulant ACD-A was plated in 384-well plate (25 μL/well) and incubated with compounds for 60 minutes at 37° C. in a 5% CO2 incubator. The blood was stimulated with a TLR2 agonist, 10 μg/mL final concentration of lipoteichoic acid (Invivogen, San Diego, Calif.) in 25 μL RPMI (Gibco) for 5 hours in a 5% CO2 incubator. At the end of the incubation, plates were centrifuged at 2300 rpm for 5 minutes. Supernatants were harvested and analyzed for IL-6 levels by Flow Cytometry beads assay (BD Biosciences, San Jose, Calif.).

IRAK4, sequence (Q9NWZ3 whole entry, species assumed): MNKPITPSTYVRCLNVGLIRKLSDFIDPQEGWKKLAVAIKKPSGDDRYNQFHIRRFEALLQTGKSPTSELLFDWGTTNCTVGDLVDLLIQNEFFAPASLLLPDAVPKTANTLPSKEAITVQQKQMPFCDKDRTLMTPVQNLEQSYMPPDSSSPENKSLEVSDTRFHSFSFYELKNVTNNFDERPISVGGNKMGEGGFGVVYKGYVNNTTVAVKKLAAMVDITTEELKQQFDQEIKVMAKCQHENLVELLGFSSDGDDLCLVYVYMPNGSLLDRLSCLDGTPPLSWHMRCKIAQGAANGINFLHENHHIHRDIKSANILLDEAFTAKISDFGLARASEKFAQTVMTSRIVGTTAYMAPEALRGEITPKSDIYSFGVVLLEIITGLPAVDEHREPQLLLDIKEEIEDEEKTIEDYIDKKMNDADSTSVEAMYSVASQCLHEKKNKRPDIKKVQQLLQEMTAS

Row | Structure (SMILES) | IC50 [1] | EC50 ([2]; Homo sapiens) | EC50 [2]
1 | CC(C)Nc1cc(-n2ncc3cc(C#N)cnc32)ncc1-c1nnc(N[C@H]2CC[C@H](N)CC2)o1 [Example 434, 1-(5-(5-(((1R,4R)-4-aminocyclohexyl)amino)-1,3,4-oxadiazol-2-yl)-4-(isopropylamino)pyridin-2-yl)-1H-pyrazolo[3,4-b]pyridine-5-carbonitrile] | 4 nM | 330 nM | 
2 | CC(C)Cn1cnc(-c2cnc(-n3ncc4cc(C#N)cnc43)cc2NC(C)C)c1 [Example 221, 1-(5-(1-isobutyl-1H-imidazol-4-yl)-4-(isopropylamino)pyridin-2-yl)-1H-pyrazolo[3,4-b]pyridine-5-carbonitrile] | 12 nM | 2210 nM | 
3 | CC(C)(O)CCc1cn(-c2cnc(-n3ncc4cc(C#N)cnc43)cc2NC(C)(C)CO)nn1 [Example 381, 1-(4-((1-hydroxy-2-methylpropan-2-yl)amino)-5-(4-(3-hydroxy-3-methylbutyl)-1H-1,2,3-triazol-1-yl)pyridin-2-yl)-1H-pyrazolo[3,4-b]pyridine-5-carbonitrile] | 2 nM | 250 nM | 
4 | CC(C)Nc1cc(-n2ncc3cc(C#N)cnc32)ncc1-c1cn(C2CN(C(=O)c3ccccc3)C2)nn1 [Example 143, 1-(5-(1-(1-benzoylazetidin-3-yl)-1H-1,2,3-triazol-4-yl)-4-(isopropylamino)pyridin-2-yl)-1H-pyrazolo[3,4-b]pyridine-5-carbonitrile] | 8 nM | 970 nM | 
5 | CC(C)Nc1cc(-n2cnc3cc(C#N)cnc32)ncc1-c1cn([C@@H]2CCC[C@H]2O)nn1 (single isomer, unassigned) [Example 83] | 5 nM |  | 860 nM
6 | CC(C)Nc1cc(-n2ncc3cc(C#N)cnc32)ncc1-c1cn(CC(O)C(F)(F)F)nn1 (stereo not drawn) [Example 129, 1-(4-(isopropylamino)-5-(1-(3,3,3-trifluoro-2-hydroxypropyl)-1H-1,2,3-triazol-4-yl)pyridin-2-yl)-1H-pyrazolo[3,4-b]pyridine-5-carbonitrile] | 7 nM | 830 nM | 
7 | CC(C)Nc1cc(-n2ncc3cc(C#N)cnc32)ncc1-c1cn(C[C@@H](O)c2ccccc2)nn1 [Example 84, (S)-1-(5-(1-(2-hydroxy-2-phenylethyl)-1H-1,2,3-triazol-4-yl)-4-(isopropylamino)pyridin-2-yl)-1H-pyrazolo[3,4-b]pyridine-5-carbonitrile] | 5 nM | 530 nM | 
8 | CCOC(=O)Cn1cc(-c2cnc(-n3ccc4cncnc43)cc2NC(C)C)nn1 [Example 2, ethyl 2-(4-(4-(isopropylamino)-6-(7H-pyrrolo[2,3-d]pyrimidin-7-yl)pyridin-3-yl)-1H-1,2,3-triazol-1-yl)acetate] | 1 nM | 10000 nM | 
9 | CCc1cn(-c2cnc(-n3ncc4cc(C#N)cnc43)cc2NC(C)C)nn1 [Example 325, 1-(5-(4-ethyl-1H-1,2,3-triazol-1-yl)-4-(isopropylamino)pyridin-2-yl)-1H-pyrazolo[3,4-b]pyridine-5-carbonitrile] | 16 nM | 990 nM | 
10 | CC(C)Nc1cc(-n2ncc3cc(C#N)cnc32)ncc1-c1cn(C2CN(C#N)C2)nn1 [Example 141, 1-(5-(1-(1-cyanoazetidin-3-yl)-1H-1,2,3-triazol-4-yl)-4-(isopropylamino)pyridin-2-yl)-1H-pyrazolo[3,4-b]pyridine-5-carbonitrile] | 8 nM | 960 nM | 
11 | CC(C)Nc1cc(-n2ncc3cc(C#N)cnc32)ncc1-c1cn([C@@H]2CCN(S(C)(=O)=O)C[C@H]2OS(C)(=O)=O)nn1 (single isomer, unassigned) [Example 202] | 5 nM | 950 nM | 
12 | CC(F)Cc1cn(-c2cnc(-n3cnc4cc(C#N)cnc43)cc2NC(C)C)nn1 (single isomer, unassigned) [Example 291, 3-(5-(4-(2-fluoropropyl)-1H-1,2,3-triazol-1-yl)-4-(isopropylamino)pyridin-2-yl)-3H-imidazo[4,5-b]pyridine-6-carbonitrile] | 14 nM | 850 nM | 
13 | CC(F)Cn1cc(-c2cnc(-n3ncc4cc(C#N)cnc43)cc2NC(C)C)nn1 (single isomer, unassigned; enantiomer 2) [Example 167, 1-(5-(1-(2-fluoropropyl)-1H-1,2,3-triazol-4-yl)-4-(isopropylamino)pyridin-2-yl)-1H-pyrazolo[3,4-b]pyridine-5-carbonitrile, enantiomer 2] | 7 nM |  | 1030 nM
14 | CC(C)Nc1cc(-n2ncc3cc(C#N)cnc32)ncc1-c1cn([C@H]2CC[C@H](NC(=O)OC(C)(C)C)CC2)nn1 [Example 212, tert-butyl ((trans)-4-(4-(6-(5-cyano-1H-pyrazolo[3,4-b]pyridin-1-yl)-4-(isopropylamino)pyridin-3-yl)-1H-1,2,3-triazol-1-yl)cyclohexyl)carbamate] | 3 nM | 1400 nM | 
15 | CCCc1cn(-c2cnc(-n3ncc4cc(C#N)c(N)nc43)cc2NC2COC2)nn1 [Example 281, 6-amino-1-(4-(oxetan-3-ylamino)-5-(4-propyl-1H-1,2,3-triazol-1-yl)pyridin-2-yl)-1H-pyrazolo[3,4-b]pyridine-5-carbonitrile] | 7 nM | 380 nM | 
16 | CC(C)Nc1cc(-n2ncc3cc(C#N)cnc32)ncc1-c1cn([C@H]2CCN(C(=O)OC(C)(C)C)C[C@H]2O)nn1 [Example 176, (3R,4S)-tert-butyl 4-(4-(6-(5-cyano-1H-pyrazolo[3,4-b]pyridin-1-yl)-4-(isopropylamino)pyridin-3-yl)-1H-1,2,3-triazol-1-yl)-3-hydroxypiperidine-1-carboxylate] | 13 nM | 2100 nM | 
17 | CC(C)Nc1cc(-n2ncc3cc(C#N)cnc32)ncc1-c1cn(CCCc2ccccc2)nn1 [Example 130, 1-(4-(isopropylamino)-5-(1-(3-phenylpropyl)-1H-1,2,3-triazol-4-yl)pyridin-2-yl)-1H-pyrazolo[3,4-b]pyridine-5-carbonitrile] | 5 nM | 10700 nM | 
18 | CCn1cc(-c2cnc(-n3ncc4cc(Cl)cnc43)cc2NC(C)C)nn1 [Example 39, 2-(5-chloro-1H-pyrazolo[3,4-b]pyridin-1-yl)-5-(1-ethyl-1H-1,2,3-triazol-4-yl)-N-isopropylpyridin-4-amine] | 14 nM | 4300 nM | 
19 | CC(C)(O)CCc1cn(-c2cnc(-n3ncc4cc(C#N)cnc43)cc2NC2(C)CC2)nn1 [Example 383, 1-(5-(4-(3-hydroxy-3-methylbutyl)-1H-1,2,3-triazol-1-yl)-4-((1-methylcyclopropyl)amino)pyridin-2-yl)-1H-pyrazolo[3,4-b]pyridine-5-carbonitrile] | 2 nM | 370 nM | 
20 | CC(C)Nc1cc(-n2ncc3cc(C#N)cnc32)ncc1-c1cn(C[C@H]2CCCN2C(=O)OC(C)(C)C)nn1 [Example 99, (R)-tert-butyl 2-((4-(6-(5-cyano-1H-pyrazolo[3,4-b]pyridin-1-yl)-4-(isopropylamino)pyridin-3-yl)-1H-1,2,3-triazol-1-yl)methyl)pyrrolidine-1-carboxylate] | 8 nM | 3370 nM | 
21 | CC(C)Nc1cc(-n2ncc3cc(C#N)cnc32)ncc1-n1cc(CC(F)C(C)(C)O)nn1 (racemic) [345, racemic, (±)-1-(5-(4-(2-fluoro-3-hydroxy-3-methylbutyl)-1H-1,2,3-triazol-1-yl)-4-(isopropylamino)pyridin-2-yl)-1H-pyrazolo[3,4-b]pyridine-5-carbonitrile] | 4 nM | 270 nM | 
22 | CC(C)Nc1cc(-n2ncc3cc(C#N)cnc32)ncc1-c1cc(C2CCOCC2)no1 [Example 418, 1-(4-(isopropylamino)-5-(3-(tetrahydro-2H-pyran-4-yl)isoxazol-5-yl)pyridin-2-yl)-1H-pyrazolo[3,4-b]pyridine-5-carbonitrile] | 3 nM | 490 nM | 
23 | CC(C)Nc1cc(-n2ncc3cc(C#N)cnc32)ncc1-c1cn(C2CN(C(=O)OC(C)(C)C)C2)nn1 [Example 113, tert-butyl 3-(4-(6-(5-cyano-1H-pyrazolo [3,4-b]pyridin-1-yl)-4-(isopropylamino)pyridin-3-yl)-1H-1,2,3-triazol-1-yl)azetidine-1-carboxylate] | 13 nM | 1860 nM | 
24 | CC(C)Nc1cc(-n2ncc3cc(C#N)cnc32)ncc1-c1cn([C@H](CO)c2ccccc2)nn1 [Example 87, (S)-1-(5-(1-(2-hydroxy-1-phenylethyl)-1H-1,2,3-triazol-4-yl)-4-(isopropylamino)pyridin-2-yl)-1H-pyrazolo[3,4-b]pyridine-5-carbonitrile] | 9 nM | 4530 nM | 
25 | CC(C)Nc1cc(-n2ncc3cc(C#N)cnc32)ncc1-c1cn(CCCO)nn1 [Example 28, 1-(5-(1-(3-hydroxypropyl)-1H-1,2,3-triazol-4-yl)-4-(isopropylamino)pyridin-2-yl)-1H-pyrazolo [3,4-b]pyridine-5-carbonitrile] | 6 nM | 1910 nM | 
26 | CC(C)Nc1cc(-n2ccc3cncnc32)ncc1-c1cn(CCO)nn1 [Example 1, 2-(4-(4-(isopropylamino)-6-(7H-pyrrolo[2,3-d]pyrimidin-7-yl)pyridin-3-yl)-1H-1,2,3-triazol-1-yl)ethanol] | 7 nM | 830 nM | 
27 | COCC(O)Cn1cc(-c2cnc(-n3ncc4cc(C#N)cnc43)cc2NC(C)C)nn1 (stereo not drawn) [Example 133, 1-(5-(1-(2-hydroxy-3-methoxypropyl)-1H-1,2,3-triazol-4-yl)-4-(isopropylamino)pyridin-2-yl)-1H-pyrazolo[3,4-b]pyridine-5-carbonitrile] | 10 nM | 980 nM | 

From patent US10294229B2, “Heteroaryl substituted aminopyridine compounds” (BRISTOL-MYERS SQUIBB COMPANY, priority 2015, dated 2019)
